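Compound exposure: 48 hours, 5 concentrations, 96-well plates. GI50 is the concentration that inhibits growth by half. TGI is the concentration that stops growth completely.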
How the values were obtained:
Assay in all cases: NCI anticancer screen, dose series, 48 h
786-0 renal = tested on: 786-0 renal
A498 renal = tested on: A498 renal
A549 NSCLC = tested on: A549 NSCLC
ACHN renal = tested on: ACHN renal
BT-549 breast = tested on: BT-549 breast
CAKI-1 renal = tested on: CAKI-1 renal
CCRF-CEM leukemia = tested on: CCRF-CEM leukemia
COLO 205 colon = tested on: COLO 205 colon
DU-145 prostate = tested on: DU-145 prostate
EKVX NSCLC = tested on: EKVX NSCLC
HCC-2998 colon = tested on: HCC-2998 colon
HCT-116 colon = tested on: HCT-116 colon
HCT-15 colon = tested on: HCT-15 colon
HL-60(TB) leukemia = tested on: HL-60(TB) leukemia
HOP-62 NSCLC = tested on: HOP-62 NSCLC
HOP-92 NSCLC = tested on: HOP-92 NSCLC
HS 578T breast = tested on: HS 578T breast
HT29 colon = tested on: HT29 colon
IGROV1 ovarian = tested on: IGROV1 ovarian
K-562 leukemia = tested on: K-562 leukemia
KM12 colon = tested on: KM12 colon
LOX IMVI melanoma = tested on: LOX IMVI melanoma
M14 melanoma = tested on: M14 melanoma
MALME-3M melanoma = tested on: MALME-3M melanoma
MCF7 breast = tested on: MCF7 breast
MDA-MB-231 breast = tested on: MDA-MB-231 breast
MDA-MB-435 = tested on: MDA-MB-435
MOLT-4 leukemia = tested on: MOLT-4 leukemia
NCI-H226 lung = tested on: NCI-H226 lung
NCI-H23 lung = tested on: NCI-H23 lung
NCI-H460 lung = tested on: NCI-H460 lung
NCI-H522 lung = tested on: NCI-H522 lung
NCI/ADR-RES ovarian = tested on: NCI/ADR-RES ovarian
OVCAR-3 ovarian = tested on: OVCAR-3 ovarian
OVCAR-4 ovarian = tested on: OVCAR-4 ovarian
OVCAR-5 ovarian = tested on: OVCAR-5 ovarian
OVCAR-8 ovarian = tested on: OVCAR-8 ovarian
PC-3 prostate = tested on: PC-3 prostate
RPMI-8226 leukemia = tested on: RPMI-8226 leukemia
RXF 393 renal = tested on: RXF 393 renal
SF-268 CNS = tested on: SF-268 CNS
SF-295 CNS = tested on: SF-295 CNS
SF-539 CNS = tested on: SF-539 CNS
SK-MEL-2 melanoma = tested on: SK-MEL-2 melanoma
SK-MEL-28 melanoma = tested on: SK-MEL-28 melanoma
SK-MEL-5 melanoma = tested on: SK-MEL-5 melanoma
SK-OV-3 ovarian = tested on: SK-OV-3 ovarian
SN12C renal = tested on: SN12C renal
SNB-19 CNS = tested on: SNB-19 CNS
SNB-75 CNS = tested on: SNB-75 CNS
SR leukemia = tested on: SR leukemia
SW-620 colon = tested on: SW-620 colon
T-47D breast = tested on: T-47D breast
TK-10 renal = tested on: TK-10 renal
U251 CNS = tested on: U251 CNS
UACC-257 melanoma = tested on: UACC-257 melanoma
UACC-62 melanoma = tested on: UACC-62 melanoma
UO-31 renal = tested on: UO-31 renal

In the case of `CCCCCCCC(=O)SCC/C=C/[C@@H]1CC(=O)NCc2cccc(n2)CN(Cc2ccc3ccccc3c2)CC(=O)N[C@@H](C(C)C)C(=O)O1`, the GI50 (786-0 renal) was greater than 100 µM, the TGI (786-0 renal) was greater than 100 µM and the GI50 (A498 renal) was 29.5 µM. For the same molecule, the TGI (A498 renal) was 88.3 µM, the GI50 (A549 NSCLC) was greater than 100 µM and the TGI (A549 NSCLC) was greater than 100 µM. It also gave a GI50 (ACHN renal) of 45.3 µM, a TGI (ACHN renal) greater than 100 µM and a GI50 (BT-549 breast) greater than 100 µM. For the same molecule, the TGI (BT-549 breast) was greater than 100 µM, the GI50 (CAKI-1 renal) was greater than 100 µM and the TGI (CAKI-1 renal) was greater than 100 µM. The GI50 (CCRF-CEM leukemia) was 37.9 µM, the TGI (CCRF-CEM leukemia) was greater than 100 µM and the GI50 (COLO 205 colon) was 61.6 µM. For the same molecule, the TGI (COLO 205 colon) was greater than 100 µM, the GI50 (DU-145 prostate) was 94.1 µM and the TGI (DU-145 prostate) was greater than 100 µM. For the same molecule, the GI50 (EKVX NSCLC) was greater than 100 µM, the TGI (EKVX NSCLC) was greater than 100 µM and the GI50 (HCC-2998 colon) was greater than 100 µM. It also gave a TGI (HCC-2998 colon) greater than 100 µM, a GI50 (HCT-116 colon) of 26.5 µM and a TGI (HCT-116 colon) greater than 100 µM. The GI50 (HCT-15 colon) was 89.3 µM, the TGI (HCT-15 colon) was greater than 100 µM and the GI50 (HL-60(TB) leukemia) was 48 µM. The TGI (HL-60(TB) leukemia) was greater than 100 µM, the GI50 (HOP-62 NSCLC) was 39.2 µM and the TGI (HOP-62 NSCLC) was greater than 100 µM. For the same molecule, the GI50 (HOP-92 NSCLC) was 56.2 µM, the TGI (HOP-92 NSCLC) was greater than 100 µM and the GI50 (HS 578T breast) was 46 µM. For the same molecule, the TGI (HS 578T breast) was greater than 100 µM, the GI50 (HT29 colon) was 32.2 µM and the TGI (HT29 colon) was greater than 100 µM. The GI50 (IGROV1 ovarian) was 44.4 µM, the TGI (IGROV1 ovarian) was greater than 100 µM and the GI50 (K-562 leukemia) was 59.4 µM. The TGI (K-562 leukemia) was greater than 100 µM, the GI50 (KM12 colon) was 42.3 µM and the TGI (KM12 colon) was greater than 100 µM. It also gave a GI50 (LOX IMVI melanoma) of 35.1 µM, a TGI (LOX IMVI melanoma) greater than 100 µM and a GI50 (M14 melanoma) of 44.3 µM. For the same molecule, the TGI (M14 melanoma) was greater than 100 µM, the GI50 (MALME-3M melanoma) was 23.8 µM and the TGI (MALME-3M melanoma) was greater than 100 µM. It also gave a GI50 (MCF7 breast) of 40 µM, a TGI (MCF7 breast) greater than 100 µM and a GI50 (MDA-MB-231 breast) of 41.4 µM. The TGI (MDA-MB-231 breast) was greater than 100 µM, the GI50 (MDA-MB-435) was 39.7 µM and the TGI (MDA-MB-435) was greater than 100 µM. It also gave a GI50 (MOLT-4 leukemia) of 30.9 µM, a TGI (MOLT-4 leukemia) greater than 100 µM and a GI50 (NCI-H226 lung) greater than 100 µM. It also gave a TGI (NCI-H226 lung) greater than 100 µM, a GI50 (NCI-H23 lung) greater than 100 µM and a TGI (NCI-H23 lung) greater than 100 µM. It also gave a GI50 (NCI-H460 lung) of 43.9 µM, a TGI (NCI-H460 lung) greater than 100 µM and a GI50 (NCI-H522 lung) of 84.3 µM. The TGI (NCI-H522 lung) was greater than 100 µM, the GI50 (NCI/ADR-RES ovarian) was 46.4 µM and the TGI (NCI/ADR-RES ovarian) was greater than 100 µM. It also gave a GI50 (OVCAR-3 ovarian) of 74.3 µM, a TGI (OVCAR-3 ovarian) greater than 100 µM and a GI50 (OVCAR-4 ovarian) greater than 100 µM. The TGI (OVCAR-4 ovarian) was greater than 100 µM, the GI50 (OVCAR-5 ovarian) was greater than 100 µM and the TGI (OVCAR-5 ovarian) was greater than 100 µM. For the same molecule, the GI50 (OVCAR-8 ovarian) was 87 µM, the TGI (OVCAR-8 ovarian) was greater than 100 µM and the GI50 (PC-3 prostate) was 62.4 µM. For the same molecule, the TGI (PC-3 prostate) was greater than 100 µM, the GI50 (RPMI-8226 leukemia) was greater than 100 µM and the TGI (RPMI-8226 leukemia) was greater than 100 µM. The GI50 (RXF 393 renal) was 42.2 µM, the TGI (RXF 393 renal) was greater than 100 µM and the GI50 (SF-268 CNS) was 93.8 µM. For the same molecule, the TGI (SF-268 CNS) was greater than 100 µM, the GI50 (SF-295 CNS) was 41.4 µM and the TGI (SF-295 CNS) was greater than 100 µM. The GI50 (SF-539 CNS) was greater than 100 µM, the TGI (SF-539 CNS) was greater than 100 µM and the GI50 (SK-MEL-2 melanoma) was 92.4 µM. It also gave a TGI (SK-MEL-2 melanoma) greater than 100 µM, a GI50 (SK-MEL-28 melanoma) of 47 µM and a TGI (SK-MEL-28 melanoma) greater than 100 µM. The GI50 (SK-MEL-5 melanoma) was 36.2 µM, the TGI (SK-MEL-5 melanoma) was greater than 100 µM and the GI50 (SK-OV-3 ovarian) was 40 µM. It also gave a TGI (SK-OV-3 ovarian) greater than 100 µM, a GI50 (SN12C renal) greater than 100 µM and a TGI (SN12C renal) greater than 100 µM. It also gave a GI50 (SNB-19 CNS) greater than 100 µM, a TGI (SNB-19 CNS) greater than 100 µM and a GI50 (SNB-75 CNS) of 27.9 µM. For the same molecule, the TGI (SNB-75 CNS) was greater than 100 µM, the GI50 (SR leukemia) was 22.9 µM and the TGI (SR leukemia) was greater than 100 µM. It also gave a GI50 (SW-620 colon) greater than 100 µM, a TGI (SW-620 colon) greater than 100 µM and a GI50 (T-47D breast) greater than 100 µM. For the same molecule, the TGI (T-47D breast) was greater than 100 µM, the GI50 (TK-10 renal) was 18.2 µM and the TGI (TK-10 renal) was greater than 100 µM. For the same molecule, the GI50 (U251 CNS) was 98.2 µM, the TGI (U251 CNS) was greater than 100 µM and the GI50 (UACC-257 melanoma) was 88.9 µM. For the same molecule, the TGI (UACC-257 melanoma) was greater than 100 µM, the GI50 (UACC-62 melanoma) was 51.6 µM and the TGI (UACC-62 melanoma) was greater than 100 µM. The GI50 (UO-31 renal) was 50 µM and the TGI (UO-31 renal) was greater than 100 µM.

Source: PubChem BioAssay (NCI)
